What all share (assay type): in vivo, mice
For series [1], the system named is CFA-induced mechanical allodynia/hyperalgesia. Nature of the series: Complete Freund's adjuvant (CFA) inflammatory pain, von Frey test. Conditions: for CFA-induced hyperalgesia: 0.1 mg/kg, given simultaneously with CFA.
Series [2] relates to long-term reference memory. Description: Social transmission of food preference (STFP) test. Conditions: 0.1 mg/kg (dose reducing hyperalgesia). On the procedure: STFP was conducted in two phases. […] A minimum of 2 and a maximum of 5 licking/sniffing interactions were set as criteria for appropriate acquisition of the odour cue. […] Second phase: following a 24-hour retention interval, the observer mice were placed individually in cages containing two trays of crushed food scented with cinnamon or cocoa, respectively. The amount eaten from the cued food over the novel food is taken as an index of memory for the previously cued food. […] Yet, experiments were designed in a balanced fashion to ensure that an equal number of mice within each treatment group were cued with cinnamon and cocoa, respectively.
Cognitive data: In the social transmission of food preference test, the preference for the cued food was expressed as a discrimination index, DI=(cued−novel)/(cued+novel). In the modified Y-maze, the preference for the novel arm was expressed as a discrimination index, DI=(time in novel−time in familiar)/(time in novel+time in familiar). STFP and Y-maze data were analysed by one-way ANOVA followed by Planned Comparisons was performed to assess treatment effects on the discrimination index.

For another series, the system named is attention. Description: Modified Y-maze test of attention. To be noted: 0.05 and 0.1 mg/kg. On the procedure: Testing was carried out in a clear Plexiglass maze composed of 2 perpendicular arms connected to a runway. The 2 arms (available for exploration) and runway were 50 cm long and 8 cm wide, surrounded by clear Plexi-glass walls 30 cm high. Each arm met at a central platform equipped with black removable partitions, enabling arms to be opened and closed as desired. The whole maze was enclosed in a triangular black Plexiglass box (1×1×1 m). The walls of this outer box surrounding each exploration arm were covered with distinct optical cues, e.g., white horizontal or vertical lines. […] The cumulative time spent in each arm was recorded during this test session by an automated video tracking system (Ethovision, Noldus). A discrimination index (DI) was calculated for each mouse, defined as the difference in time spent in the novel and the familiar arm divided by the total time spent in the novel and the familiar arm during phase 2 testing, i.e. DI=(novel−familiar)/(novel+familiar).
Cognitive data: In the social transmission of food preference test, the preference for the cued food was expressed as a discrimination index, DI=(cued−novel)/(cued+novel). In the modified Y-maze, the preference for the novel arm was expressed as a discrimination index, DI=(time in novel−time in familiar)/(time in novel+time in familiar). […]

The next series relates to motor performance. Nature of the series: Rotarod test of motor performance (side effects). Conditions: 0.1 mg/kg, at 15, 30, 45 and 60 min. The method, then:
Motor function was evaluated using an accelerating rotarod (MedAssociates, Inc., VT, USA). The rotarod (3.2 cm diameter) speed was increased from 4 to 40 rpm over a 300 s period with the minimum time possible to spend on the rod designated as 0 s and the maximum cut-off time set at 310 s. Each mouse was tested immediately prior to drug treatment (t=0), and again 15, 30, 45 and 60 minutes after drug treatment. When an animal fell off the rotating drum, a photobeam was automatically broken to record the amount of time spent on the rotating rod.
Motor performance: In the rotarod test, treatment effect on motor coordination was analysed using a two-way RM ANOVA, with treatment as the independent factor and time as repeated measure. Planned comparisons procedure was used to assess treatment effects over time.
(Falling from the rotarod earlier than controls is read as motor impairment.)

“Also recorded” adds a separate entry of the source.

With `C[C@]12N[C@H](Cc3ccccc31)c1ccccc12` [MK-801], the CFA-induced hyperalgesia entry is “significantly reversed the CFA-induced hyperalgesia” in series [1] (after 1 hour) and “significant reversal was still observed” in series [1] (after 24 hours). The CFA-induced mechanical hyperalgesia entry in series [1] (administered concurrently with CFA, 1 hour and 24 hours after treatment) was “prevented the development of CFA-induced mechanical hyperalgesia”. Moreover, the “discrimination index, social transmission of food preference” value in series [2] is recorded as “induced cognitive deficits; also recorded: significantly reduced the discrimination index”. The “discrimination index, modified Y-maze” value in the series with attention is given as “induced cognitive deficits; also recorded: discrimination index was reduced”. For the same compound, the “motor performance, time on the rotarod” value in the series on motor performance was “motor deficits; also recorded: significantly decreased time on the rotarod”.

Source of the values: patent US9139615B2, “High-affinity, dimeric inhibitors of PSD-95 as efficient neuroprotectants against ischemic brain damage and for treatment of pain” (University of Copenhagen, priority 2011, dated 2015).
